Starred links: 1 amine or outer side, 2 acyl side, 3 side chain; linkers in the order of their positions; H or OH if unused. Non-standard residues stand in square brackets, D forms with d. Residues, ends and D or L forms follow the SMILES beside them. *: point of attachment. Hyp(2-Ph-quinolin-4-yl) = O=C(O)[C@@H]1C[C@@H](Oc2cc(-c3ccccc3)nc3ccccc23)CN1; Hyp(quinolin-4-yl) = O=C(O)[C@@H]1C[C@@H](Oc2ccnc3ccccc23)CN1; Acca(2-Et,1R,2R) = CC[C@@H]1C[C@]1(N)C(=O)O; Dip = N[C@H](C(=O)O)C(c1ccccc1)c1ccccc1; Hyp = O=C(O)[C@@H]1C[C@@H](O)CN1; azaNva = CCCN(N[*:1])C(=O)[*:2]; Cha = N[C@@H](CC1CCCCC1)C(=O)O; X2 = C[C@H](N*)c1cccc2ccccc12; Chg = N[C@H](C(=O)O)C1CCCCC1; NH(CH2)3Ph = c1ccc(CCCN*)cc1; X5 = c1ccc2c(c1)CC[C@@H]2N*; X9 = C[C@H](N*)c1nnn[nH]1; X6 = c1ccc2c(c1)CC(N*)C2; Ac3c = NC1(C(=O)O)CC1; X1 = Clc1ccccc1CCN*; X4 = C1CCC(CCN*)CC1; Bn = c1ccc(C*)cc1
Tests used:
[1] = test system: Human immunodeficiency virus 1; assay: Antiviral activity against HIV1; type: functional, organism-based
Human betaherpesvirus 5 = assay: Antiviral activity against Human cytomegalovirus; type: functional, organism-based
Hepatitis C virus = assay: Antiviral activity against Hepatitis C virus; type: functional, organism-based, Hepacivirus hominis

SMILES | IC50 (Human betaherpesvirus 5; Human betaherpesvirus 5) [nM] | IC50 (Hepatitis C virus; Hepatitis C virus) [nM] | also measured
COc1c(C=O)c2cc(Cl)c(Cl)cc2n1[C@H]1C[C@H](O)[C@@H](CO)O1 | 100000 |  | IC50 [1]: 100000 nM
CC(=O)c1c(Br)n([C@H]2C[C@H](O)[C@@H](CO)O2)c2cc(Cl)c(Cl)cc12 | 340 |  | 
COc1c(C#N)c2cc(Cl)c(Cl)cc2n1[C@H]1C[C@H](O)[C@@H](CO)O1 | 68000 |  | IC50 [1]: 90000 nM
Cc1c(C(=O)N2CCC[C@H]2C(=O)N2CC[C@H]3[C@H]2[C@H](C)C(=O)N3C(=O)C2CC2)sc2ccc(Cl)cc12 | 190 |  | 
CC(C)Oc1ccc(NC(=O)N2CCC[C@H]2C(=O)N2CC[C@H]3[C@H]2[C@H](C)C(=O)N3C(=O)C2CC2)cc1 | 180 |  | 
N#Cc1ccc(Br)cc1COc1cccc(C(=O)/C=C(\O)C(=O)O)c1 |  | 100 | 
CCC[C@@]1(CC(=O)O)OCCc2c1[nH]c1c(Cl)ccc(CC)c21 |  | 15000 | 
N#CCCCOc1ccccc1C(=O)CC(=O)C(=O)O |  | 350 | 
O=C(O)[C@H](Cc1ccccc1)N(Cc1ccc(-c2nccs2)cc1)C(=O)c1ccc(Cl)cc1Cl (stereo in doubt; form 2) |  |  | IC50 (Hepatitis C virus): 5700 nM
CC(=O)N[C@@H](CC(=O)O)C(=O)N[C@@H](CCC(=O)O)C(=O)N[C@H](C(=O)N[C@@H](CCC(=O)O)C(=O)N[C@@H](CC1CCCCC1)C(=O)N[C@@H](CS)C(=O)NC1Cc2ccccc2C1)C(c1ccccc1)c1ccccc1 (Ac-DE[Dip]E[Cha]C-X6) |  | 1700 | 
COc1ccc2c(O[C@@H]3C[C@H]4C(=O)N[C@]5(C(=O)O)C[C@H]5/C=C\CCCCC[C@H](NC(=O)OC(C)(C)C)C(=O)N4C3)cc(-n3cnc(C)c3)nc2c1 |  | 14 | 
CC(=O)N[C@@H](CC(=O)O)C(=O)N[C@@H](CCC(=O)O)C(=O)N[C@H](C(=O)N[C@@H](CCC(=O)O)C(=O)N[C@@H](CC1CCCCC1)C(=O)N[C@@H](CS)C(=O)NCCCc1ccccc1)C(c1ccccc1)c1ccccc1 (Ac-DE[Dip]E[Cha]C-{NH(CH2)3Ph}) |  | 210 | 
COc1ccc2c(O[C@@H]3C[C@H]4C(=O)N[C@]5(C(=O)O)C[C@H]5/C=C\CCCCC[C@H](NC(=O)OC5CCCC5)C(=O)N4C3)cc(-c3csc(NC(C)=O)n3)nc2c1 |  | 2.5 | 
CCc1ccc(C(=O)CC(=O)C(=O)O)cc1 |  | 47000 | 
O=C(O)C(=O)CC(=O)c1cccc(NS(=O)(=O)c2ccccc2)c1 |  | 16000 | 
C[C@@H]1C(=O)N(C(=O)C2CC2)[C@H]2CCN(C(=O)[C@@H]3CCCN3C(=O)Nc3ccc(Cl)cc3)[C@H]12 | 260 |  | 
CCCN(NC(=O)[C@@H]1C[C@@H](OCc2ccccc2)CN1C(=O)[C@@H](NC(=O)[C@@H](NC(=O)[C@@H](CCC(=O)O)NC(=O)[C@H](CC(=O)O)NC(C)=O)[C@@H](C)CC)C(C)C)C(=O)N[C@@H](C)c1cccc2ccccc12 (Ac-D[dE]IV[Hyp](Bn)[azaNva]-X2) |  | 490 | 

SMILES | IC50 (Human betaherpesvirus 5; Human betaherpesvirus 5) [nM] | IC50 (Hepatitis C virus; Hepatitis C virus) [nM] | also measured
C[C@@H]1C(=O)N(C(=O)C2CC2)[C@H]2CCN(C(=O)[C@@H]3CCCN3S(=O)(=O)c3ccc(Cl)cc3)[C@H]12 (stereo in doubt; form 2) |  |  | IC50 (Human betaherpesvirus 5): 840 nM
CCCCOc1ccccc1C(=O)CC(=O)C(=O)O |  | 10000 | 
CCCN(NC(=O)[C@@H]1C[C@@H](OCc2ccccc2)CN1C(=O)[C@@H](NC(=O)[C@@H](NC(=O)[C@@H](CCC(=O)O)NC(=O)[C@H](CC(=O)O)NC(C)=O)[C@@H](C)CC)C(C)C)C(=O)N[C@H]1CCc2ccccc21 (Ac-D[dE]IV[Hyp](Bn)[azaNva]-X5) |  | 100 | 
C[C@@H]1C(=O)N(C(=O)C2CC2)[C@H]2CCN(C(=O)[C@@H]3CCCN3C(=O)c3ccc(Cl)cc3)[C@H]12 | 1400 |  | 
CCCCCCCCCCCCCCCCCCOCCCOP(=O)(O)CO[C@H](CO)Cn1ccc(N)nc1=O | 0.03 |  | 
Cc1cccc(CN(C(=O)c2ccc(Cl)cc2Cl)[C@@H](Cc2ccccc2)C(=O)O)c1 |  | 1800 | 
CCC[C@]1(CC(=O)O)OCCc2c1[nH]c1c(C)cc(F)c(C#N)c21 |  | 80 | 
CCNc1nc(-c2cc(O[C@@H]3C[C@H]4C(=O)N[C@]5(C(=O)O)C[C@H]5/C=C\CCCCC[C@H](NC(=O)OC5CCCC5)C(=O)N4C3)c3ccc(OC)cc3n2)cs1 |  | 2.9 | 
O[C@@H]1[C@H](O)[C@@H](n2c(Cl)nc3cc(Cl)c(Cl)cc32)O[C@H]1C(F)(F)F | 450 |  | 
COc1ccc2c(O[C@@H]3C[C@H]4C(=O)N[C@]5(C(=O)O)C[C@H]5/C=C\CCCCC[C@H](NC(=O)OC(C)(C)C)C(=O)N4C3)cc(-n3ccc(C)n3)nc2c1 |  | 3 | 
COc1ccc2c(O[C@@H]3C[C@H]4C(=O)N[C@]5(C(=O)O)C[C@H]5/C=C\CCCCC[C@H](NC(=O)OC(C)(C)C)C(=O)N4C3)cc(-c3nnc(C)o3)nc2c1 |  | 12 | 
C[C@@H]1C(=O)N(C(=O)C2CC2)[C@H]2CCN(C(=O)[C@@H]3CCCN3C(=O)Nc3cccc4ccccc34)[C@H]12 | 650 |  | 
O=C(O)[C@H](Cc1ccccc1)N(Cc1cccc([N+](=O)[O-])c1)C(=O)c1ccc(Cl)cc1Cl |  | 700 | 
CCC[C@]1(CC(=O)O)OCCc2c1[nH]c1c(C)ccc(C#N)c21 |  | 330 | 
CC(=O)N[C@H](C(=O)N[C@H](C(=O)N1C[C@H](Oc2ccnc3ccccc23)C[C@H]1C(=O)NC1(C(=O)O)CC1)C(C)C)C1CCCCC1 (Ac-[Chg]V[Hyp(quinolin-4-yl)][Ac3c]-OH) |  | 2200 | 
O=C(O)[C@H](Cc1ccccc1)N(Cc1ccc(-c2nccs2)cc1)C(=O)c1ccc(Cl)cc1Cl (stereo in doubt; form 1) |  |  | IC50 (Hepatitis C virus): 620 nM

The next lines start with results.

IC50 (Human betaherpesvirus 5; Human betaherpesvirus 5) [nM] | IC50 (Hepatitis C virus; Hepatitis C virus) [nM] | SMILES | also measured
40000 |  | CCCc1nn([C@H]2C[C@H](O)[C@@H](CO)S2)c(=O)[nH]c1=O | 
3000 |  | N#Cc1c(Cl)n([C@@H]2O[C@H](CN=[N+]=[N-])[C@@H](O)[C@H]2O)c2cc(Cl)c(Cl)cc12 | IC50 [1]: 15000 nM
210 |  | CCCOc1ccc(NC(=O)N2CCC[C@H]2C(=O)N2CC[C@H]3[C@H]2[C@H](C)C(=O)N3C(=O)C2CC2)cc1 | 
650 |  | C[C@@H]1C(=O)N(C(=O)C2CC2)[C@H]2CCN(C(=O)[C@@H]3CCCN3C(=O)Nc3cccc(Cl)c3)[C@H]12 | 
3200 |  | OC[C@H]1O[C@@H](n2c(Cl)nc3cc(Cl)c(Cl)cc32)[C@H](O)[C@@H]1O | 
65000 |  | CC(C)Oc1cccc(S(=O)(=O)N2CCC[C@H]2C(=O)N2CC[C@H]3[C@H]2[C@H](C)C(=O)N3C(=O)C2CC2)c1 | 
 | 11000 | O=C(O)[C@H](Cc1ccccc1)N(Cc1cccnc1)C(=O)c1ccc(Cl)cc1Cl | 
 | 2.2 | COc1ccc2c(O[C@@H]3C[C@H]4C(=O)N[C@]5(C(=O)O)C[C@H]5/C=C\CCCCC[C@H](NC(=O)OC5CCCC5)C(=O)N4C3)cc(-n3cccn3)nc2c1 | 
 | 2.2 | COc1ccc2c(O[C@@H]3C[C@H]4C(=O)N[C@]5(C(=O)O)C[C@H]5/C=C\CCCCC[C@H](NC(=O)OC5CCCC5)C(=O)N4C3)cc(-n3ccc(C)n3)nc2c1 | 
 | 13 | CC[C@@H]1C[C@]1(NC(=O)[C@@H]1C[C@@H](Oc2cc(-c3ccccc3)nc3ccccc23)CN1C(=O)[C@@H](NC(=O)[C@@H](NC(C)=O)C1CCCCC1)C(C)C)C(=O)O (Ac-[Chg]V[Hyp(2-Ph-quinolin-4-yl)][Acca(2-Et,1R,2R)]-OH) | 
 | 3.6 | COc1ccc2c(O[C@@H]3C[C@H]4C(=O)N[C@]5(C(=O)O)C[C@H]5/C=C\CCCCC[C@H](NC(=O)OC5CCCC5)C(=O)N4C3)cc(-n3cccc3)nc2c1 | 
 | 44000 | O=C(O)C(=O)CC(=O)c1ccccc1OCc1ccccc1 | 
 | 50000 | O=C(CC(=O)C(=O)O)Cc1ccco1 | 
 | 2.6 | COc1ccc2c(O[C@@H]3C[C@H]4C(=O)N[C@]5(C(=O)O)C[C@H]5/C=C\CCCCC[C@H](NC(=O)OC5CCC5)C(=O)N4C3)cc(-c3csc(NC(C)=O)n3)nc2c1 | 
 | 1700 | O=C(O)[C@H](Cc1ccccc1)N(Cc1cccc(C(F)(F)F)c1)C(=O)c1ccc(Cl)cc1Cl | 
1400 |  | C[C@@H]1C(=O)N(C(=O)C2CC2)[C@H]2CCN(C(=O)[C@@H]3CCCN3C(=O)Nc3ccccc3)[C@H]12 | 
890 |  | C[C@@H]1C(=O)N(C(=O)C2CC2)[C@H]2CCN(C(=O)[C@@H]3CCCN3C(=O)c3cccc4ccccc34)[C@H]12 | 
 | 50000 | CC(C)(C)c1ccc(C(=O)CC(=O)C(=O)O)cc1 | 
 | 50000 | CC(=O)CC(=O)C(=O)O | 
 | 2 | CC(=O)N[C@@H](CC(=O)O)C(=O)N[C@@H](CCC(=O)O)C(=O)N[C@H](C(=O)N[C@@H](CCC(=O)O)C(=O)N[C@@H](CC1CCCCC1)C(=O)N[C@@H](CS)C(=O)NCCc1ccccc1Cl)C(c1ccccc1)c1ccccc1 (Ac-DE[Dip]E[Cha]C-X1) | 
 | 860 | CCCN(NC(=O)[C@@H]1C[C@@H](OCc2ccccc2)CN1C(=O)[C@@H](NC(=O)[C@@H](NC(=O)[C@@H](CCC(=O)O)NC(=O)[C@H](CC(=O)O)NC(C)=O)[C@@H](C)CC)C(C)C)C(=O)N[C@@H](C)c1nnn[nH]1 (Ac-D[dE]IV[Hyp](Bn)[azaNva]-X9) | 
 | 370 | CC(=O)N[C@H](C(=O)N[C@H](C(=O)N1C[C@H](Oc2cc(-c3ccccc3)nc3ccccc23)C[C@H]1C(=O)NC1(C(=O)O)CC1)C(C)C)C1CCCCC1 (Ac-[Chg]V[Hyp(2-Ph-quinolin-4-yl)][Ac3c]-OH) | 
 | 5.5 | COc1ccc2c(O[C@@H]3C[C@H]4C(=O)N[C@]5(C(=O)O)C[C@H]5/C=C\CCCCC[C@H](NC(=O)OC(C)(C)C)C(=O)N4C3)cc(-c3csc(N)n3)nc2c1 | 
 | 1540 | CC(=O)N[C@@H](CC(=O)O)C(=O)N[C@@H](CCC(=O)O)C(=O)N[C@H](C(=O)N[C@@H](CCC(=O)O)C(=O)N[C@@H](CC1CCCCC1)C(=O)N[C@@H](CS)C(=O)NCCC1CCCCC1)C(c1ccccc1)c1ccccc1 (Ac-DE[Dip]E[Cha]C-X4) | 
 | 45 | N#Cc1c(Cl)cc(Cl)cc1COc1cccc(C(=O)/C=C(\O)C(=O)O)c1 | 
190 |  | C[C@@H]1C(=O)N(C(=O)C2CC2)[C@H]2CCN(C(=O)[C@@H]3CCCN3S(=O)(=O)c3ccc4ccccc4c3)[C@H]12 | 
 | 50000 | O=C(CC(O)C(=O)O)c1ccccc1 (stereo unspecified) | 
 | 25000 | COC(=O)c1cccc(CCNC(=O)[C@H](CS)NC(=O)[C@H](CC(C)C)NC(=O)[C@H](CCC(=O)O)NC(=O)OCC(C)C)c1 | 
 | 5.1 | COc1ccc2c(O[C@@H]3C[C@H]4C(=O)N[C@]5(C(=O)O)C[C@H]5/C=C\CCCCC[C@H](NC(=O)OC(C)(C)C)C(=O)N4C3)cc(-n3cccc3)nc2c1 | 
 | 34000 | Cc1cn([C@@H]2O[C@H](CO)[C@@H](O)[C@@]2(C)O)c2ncnc(N)c12 | 

Source: ChEMBL document CHEMBL1136837, “Unified QSAR approach to antimicrobials. 4. Multi-target QSAR modeling and comparative multi-distance study of the giant components of antiviral drug-drug complex networks” (Bioorg Med Chem, 2009)
